Some test systems named below: CAKI-1 renal; NCI-H522 lung; UACC-62 melanoma; SN12C renal; RXF 393 renal; MALME-3M melanoma; SF-268 CNS; SK-MEL-5 melanoma.
What all share (test): growth of human tumour cells (NCI), 48 h

Several values for one entry are separate records, joined by “and”; a condition that tells them apart may be missing. Identical values can stand only once.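 Assay format: 96-well plates, 48-hour exposure. Abbreviation: GI50, concentration required for 50% inhibition of growth. At the TGI there is no net growth.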

For the compound `O=C1NC(=NC(CO)Cc2ccccc2)S/C1=C\c1ccc2ncccc2c1` (stereo not drawn), the GI50 in the experiment with CAKI-1 renal was 9.35 µM and 3.64 µM; in the experiment on NCI-H522 lung it was 8.38 µM and 2.85 µM; in the experiment on UACC-62 melanoma, 14.6 µM and 5.27 µM; in the experiment on SN12C renal it was 14.9 µM and 3.46 µM; in the experiment with RXF 393 renal, 11.5 µM and 3.82 µM; with MALME-3M melanoma it was 12 µM and 6.19 µM. Besides, the GI50 was 20 µM and 4.36 µM in the experiment with SF-268 CNS; > 25 µM and 5.17 µM in the experiment with SK-MEL-5 melanoma. Further, the TGI in the experiment with CAKI-1 renal is above 25 µM; in the experiment with NCI-H522 lung it was > 25 µM and 10 µM; in the experiment with UACC-62 melanoma it was above 25 µM; with SN12C renal, above 25 µM; in the experiment with RXF 393 renal, > 25 µM and 10.7 µM; in the experiment on MALME-3M melanoma it was above 25 µM. In addition, the TGI with SF-268 CNS was above 25 µM; with SK-MEL-5 melanoma, > 25 µM and 12.3 µM.
Take `O=C1CN(c2cccc(Cl)c2)C(=O)CN1CCN1CC(=O)N(c2cccc(Cl)c2)CC1=O`: the TGI with CAKI-1 renal, in the experiment on NCI-H522 lung, with UACC-62 melanoma, in the experiment on SN12C renal, with RXF 393 renal and in the experiment on MALME-3M melanoma was above 100 µM each time. The TGI in the experiment on SF-268 CNS and with SK-MEL-5 melanoma was above 100 µM in each case.
Take `CN(C)c1cc(NN=C(c2ccc(O)cc2)c2ccc(O)cc2)c([N+](=O)[O-])cc1[N+](=O)[O-]`: the GI50 was 6.76 µM with CAKI-1 renal; 10.5 µM in the experiment on NCI-H522 lung; 3.41 µM in the experiment on UACC-62 melanoma; 10.4 µM in the experiment on SN12C renal; 11.3 µM with RXF 393 renal; 13.7 µM with MALME-3M melanoma. In addition, the GI50 with SF-268 CNS was 3.88 µM; with SK-MEL-5 melanoma, 3.17 µM. Further, the TGI came out at 20.2 µM in the experiment with CAKI-1 renal; 38.4 µM with NCI-H522 lung; 14.4 µM in the experiment with UACC-62 melanoma; 23.7 µM with SN12C renal; 26.9 µM with RXF 393 renal; 28 µM in the experiment on MALME-3M melanoma. Further, the TGI in the experiment on SF-268 CNS turned out to be 15.9 µM; with SK-MEL-5 melanoma, 14.4 µM.
For `O=C(CCCSc1nc(-c2ccccc2)cc(-c2ccccc2)n1)NO`, the GI50 with CAKI-1 renal is 0.516 µM; in the experiment on NCI-H522 lung, 1.86 µM; in the experiment on UACC-62 melanoma it was 1.32 µM; in the experiment on SN12C renal it was 1.94 µM; with RXF 393 renal, 0.525 µM; with MALME-3M melanoma, 1.95 µM. The GI50 is 2.03 µM with SF-268 CNS and 1.41 µM with SK-MEL-5 melanoma. The TGI with CAKI-1 renal worked out at 6.46 µM; with NCI-H522 lung, 9.51 µM; in the experiment with UACC-62 melanoma, 3.21 µM; in the experiment with SN12C renal, 9.1 µM; with RXF 393 renal, 3.05 µM; in the experiment on MALME-3M melanoma it was 9.71 µM. In addition, the TGI was found to be 5.76 µM in the experiment with SF-268 CNS and 3.17 µM with SK-MEL-5 melanoma.
For the compound `Nc1n[nH]c2cccc(C#Cc3cccc(C(=O)Nc4ccc(CN5CCOCC5)c(C(F)(F)F)c4)c3)c12`, the GI50 was 3.2 µM with CAKI-1 renal; 2.52 µM with NCI-H522 lung; 1.12 µM in the experiment on UACC-62 melanoma; 2.48 µM in the experiment with SN12C renal; 1.53 µM in the experiment with RXF 393 renal; 0.446 µM with MALME-3M melanoma. Also, the GI50 in the experiment with SF-268 CNS was 2.72 µM; in the experiment on SK-MEL-5 melanoma it was 1.4 µM. In addition, the TGI in the experiment with CAKI-1 renal was 11.4 µM; in the experiment on NCI-H522 lung, 9.28 µM; in the experiment on UACC-62 melanoma it was 3.52 µM; in the experiment with SN12C renal, 9.48 µM; in the experiment on RXF 393 renal, 3.44 µM; with MALME-3M melanoma it was 2.69 µM. Besides, the results for the TGI with SF-268 CNS and in the experiment with SK-MEL-5 melanoma were 13.3 µM and 3.26 µM, respectively.
Regarding `COc1cccc(C2SC(N)=Nc3c2c(C)nn3C(=O)c2ccccc2O)c1` (stereo not drawn), the TGI with CAKI-1 renal, with NCI-H522 lung, with UACC-62 melanoma, with SN12C renal, in the experiment on RXF 393 renal and in the experiment with MALME-3M melanoma was above 10 µM throughout. Further, the TGI with SF-268 CNS and in the experiment on SK-MEL-5 melanoma was above 10 µM in each case.
For `COc1ccc2nc3cc(Cl)ccc3c(NCCNCC(C)O)c2c1` (stereo not drawn), the GI50 in the experiment on CAKI-1 renal is 1.57 µM; with NCI-H522 lung, 1.48 µM; with UACC-62 melanoma, 2.01 µM; in the experiment on SN12C renal, 1.85 µM; with RXF 393 renal it was 1.61 µM; with MALME-3M melanoma, 1.82 µM. For the same compound, the results for the GI50 with SF-268 CNS and in the experiment with SK-MEL-5 melanoma were 2.36 µM and 1.68 µM, respectively. The TGI in the experiment with CAKI-1 renal is 4.54 µM; with NCI-H522 lung, 3.1 µM; with UACC-62 melanoma, 4.31 µM; with SN12C renal, 7.4 µM; in the experiment on RXF 393 renal, 3.37 µM; in the experiment on MALME-3M melanoma it was 3.68 µM. Also, the values for the TGI in the experiment with SF-268 CNS and in the experiment with SK-MEL-5 melanoma were 12.3 µM and 3.06 µM, respectively.
As for `CC1(COc2ccc3c(c2)ncn3-c2ccc3cccc(N4CCC(N)CC4)c3n2)COC1`, the GI50 in the experiment on CAKI-1 renal was 4.75 µM and 3.55 µM; in the experiment with NCI-H522 lung it was 1.21 µM and 1.6 µM; with UACC-62 melanoma, 16.7 µM and > 10 µM; in the experiment on SN12C renal it was 0.945 µM and 1.12 µM; in the experiment with RXF 393 renal it was 1.32 µM and 0.893 µM; with MALME-3M melanoma it was 3.23 µM and 1.86 µM. The GI50 in the experiment on SF-268 CNS was 2.74 µM and 2.85 µM; in the experiment with SK-MEL-5 melanoma, 2.31 µM and 2.12 µM. For the same compound, the TGI is 19.6 µM and > 10 µM in the experiment with CAKI-1 renal; 3.3 µM and 5.19 µM with NCI-H522 lung; 34.4 µM and > 10 µM in the experiment on UACC-62 melanoma; 15.3 µM and > 10 µM in the experiment with SN12C renal; 3.3 µM and 2.71 µM with RXF 393 renal; 6.46 µM and 3.74 µM in the experiment with MALME-3M melanoma. Further, the TGI with SF-268 CNS is 9.15 µM and > 10 µM; with SK-MEL-5 melanoma, 6.7 µM and 5.22 µM.
On to `Nc1ccc(C2=NNC(=O)Cc3cc4c(cc32)OCCO4)cc1Cl`, for which the GI50 with CAKI-1 renal is 1.99 µM; in the experiment with NCI-H522 lung, 2.02 µM; in the experiment with UACC-62 melanoma, 4.42 µM; with SN12C renal it was 14.9 µM; in the experiment on RXF 393 renal it was 5.27 µM; in the experiment with MALME-3M melanoma, 4.13 µM. Moreover, the GI50 in the experiment with SF-268 CNS is 8.77 µM; in the experiment on SK-MEL-5 melanoma, 2.28 µM. In addition, the TGI is above 50 µM in the experiment on CAKI-1 renal; 23.5 µM in the experiment with NCI-H522 lung; above 50 µM in the experiment on UACC-62 melanoma; above 50 µM in the experiment on SN12C renal; 19.3 µM in the experiment with RXF 393 renal; above 50 µM in the experiment with MALME-3M melanoma. Also, the TGI in the experiment on SF-268 CNS and in the experiment on SK-MEL-5 melanoma was above 50 µM in each case.

Values taken from PubChem BioAssay (NCI).
